Laboratory results as given in patent publication US9034918B2, “Composition including at least one trans-cinnamaldehyde and the use thereof in the treatment of bacterial infections, specifically in the treatment of nosocomial infections” (SEPTEOS, priority 2009, dated 2015).

Experiments:
Assay type in all cases: cell-based
E. coli ATCC 25922 = test: Antibiogram by diffusion technique (CA-SFM 2008); design: Diameter (D): unit not given here
Source text: Three clinical categories were selected for interpretation of the in vitro sensitivity tests: sensitive (S), resistant (R) and intermediate (I). • The strains categorized S are those for which the probability of therapeutic success is high in the case of treatment by systemic route with the dosing schedule recommended in the summary of product characteristics (SPC) prepared by the French Health Products Safety Agency ([…]). • The strains categorized R are those for which there is a high probability of therapeutic failure regardless of treatment type and antibiotic dose. • The strains categorized I are those for which therapeutic success cannot be predicted. These strains form a heterogeneous group for which the results obtained in vitro are not predictive of therapeutic success. […] The intermediate category is also a buffer zone which takes into account technical and biological uncertainties. The sensitivity of strains to antibiotics was determined by a diffusion technique according to the 2008 recommendations by the Antibiogram Committee of the French Microbiology Society (CA-SFM). In terms of critical concentrations and diameters, strains are categorized as follows: • sensitive (S): strains for which the MIC of the antibiotic tested is less than or equal to the lower critical concentration c, which is equivalent to a diameter greater than or equal to the critical diameter D; • resistant (R): strains for which the MIC of the antibiotic tested are greater than the upper critical concentration C, corresponding to a diameter less than the critical diameter d; • intermediate sensitivity (I): strains for which the MIC of the antibiotic tested and the corresponding diameter are between the two critical concentrations and the two critical diameters. The tests were carried out on Mueller-Hinton agar. An inoculum adjusted to 0.5 on the McFarland scale is then diluted to 1/100. Petri dishes are inoculated by swabbing. The dishes are read after 24 hours of incubation at 37° C. The raw results are then interpreted according to the interpretative reading rules of the CA-SFM. Two examples: all strains of methicillin-resistant Staphylococcus are resistant to all beta-lactams, and the same is true for gentamicin-resistant strains; golden staph is necessarily resistant to kanamycin (and amikacin) and tobramycin. The quality of the diffusion method is controlled using E. coli strain ATCC 25922.

Enterococcus strain 8152 = test: Antibiogram by diffusion technique (CA-SFM 2008); design: Diameter: unit not given here
Source text: (§1) Three clinical categories were selected for interpretation of the in vitro sensitivity tests: sensitive (S), resistant (R) and intermediate (I). • The strains categorized S are those for which the probability of therapeutic success is high in the case of treatment by systemic route with the dosing schedule recommended in the summary of product characteristics (SPC) prepared by the French Health Products Safety Agency (AFSSAPS). • The strains categorized R are those for which there is a high probability of therapeutic failure regardless of treatment type and antibiotic dose. • The strains categorized I are those for which therapeutic success cannot be predicted. These strains form a heterogeneous group for which the results obtained in vitro are not predictive of therapeutic success. […] The intermediate category is also a buffer zone which takes into account technical and biological uncertainties.
(§2) The sensitivity of strains to antibiotics was determined by a diffusion technique according to the 2008 recommendations by the Antibiogram Committee of the French Microbiology Society (CA-SFM).
(§3) In terms of critical concentrations and diameters, strains are categorized as follows: • sensitive (S): strains for which the MIC of the antibiotic tested is less than or equal to the lower critical concentration c, which is equivalent to a diameter greater than or equal to the critical diameter D; • resistant (R): strains for which the MIC of the antibiotic tested are greater than the upper critical concentration C, corresponding to a diameter less than the critical diameter d; • intermediate sensitivity (I): strains for which the MIC of the antibiotic tested and the corresponding diameter are between the two critical concentrations and the two critical diameters.
(§4) The tests were carried out on Mueller-Hinton agar. An inoculum adjusted to 0.5 on the McFarland scale is then diluted to 1/100. Petri dishes are inoculated by swabbing. The dishes are read after 24 hours of incubation at 37° C.
(§5) The raw results are then interpreted according to the interpretative reading rules of the CA-SFM.

Enterococcus strain 8153 = test: Antibiogram by diffusion technique (CA-SFM 2008); design: Diameter: unit not given here
Source text: as §1, §2, §3, §4, §5

E. coli strain 8155 = test: Antibiogram by diffusion technique (CA-SFM 2008); design: D: unit not given here
Source text: as §1, §2, §3, §4, §5

E. coli strain 8157 = test: Antibiogram by diffusion technique (CA-SFM 2008); design: D: unit not given here
Source text: as §1, §2, §3, §4, §5

[1] = tested on: golden staph (S. aureus) strain 8239; test: Antibiogram by diffusion technique (CA-SFM 2008); design: D: unit not given here
Source text: as §1, §2, §3, §4, §5

[2] = tested on: Pseudomonas aeruginosa strain 8132; test: Antibiogram by diffusion technique (CA-SFM 2008); design: D: unit not given here
Source text: as §1, §2, §3, §4, §5

[3] = tested on: Pseudomonas aeruginosa strain 8128; test: Antibiogram by diffusion technique (CA-SFM 2008); design: D: unit not given here
Source text: as §1, §2, §3, §4, §5

[4] = tested on: Pseudomonas aeruginosa strain 8129; test: Antibiogram by diffusion technique (CA-SFM 2008); design: D: unit not given here
Source text: as §1, §2, §3, §4, §5

E. coli strain 8154 = test: Antibiogram by diffusion technique (CA-SFM 2008); design: D: unit not given here
Source text: as §1, §2, §3, §4, §5

[5] = tested on: golden staph (S. aureus) strain 8240; test: Antibiogram by diffusion technique (CA-SFM 2008); design: D: unit not given here
Source text: as §1, §2, §3, §4, §5

[6] = tested on: golden staph (S. aureus) strain 8147; test: Antibiogram by diffusion technique (CA-SFM 2008); design: D: unit not given here
Source text: as §1, §2, §3, §4, §5

E. coli strain 8156 = test: Antibiogram by diffusion technique (CA-SFM 2008); design: D: unit not given here
Source text: as §1, §2, §3, §4, §5

[7] = tested on: Pseudomonas aeruginosa strain 8134; test: Antibiogram by diffusion technique (CA-SFM 2008); design: D: unit not given here
Source text: as §1, §2, §3, §4, §5

[8] = tested on: strain 9007, Pseudomonas aeruginosa, with VIM-2 carbapenemase; test: Antibiogram by diffusion technique (CA-SFM 2008)
Source text: as §1, §2, §3, §4, §5

[9] = tested on: strain 9010, Acinetobacter baumannii, with VEB-1 ESBL; test: Antibiogram by diffusion technique (CA-SFM 2008)
Source text: as §1, §2, §3, §4, §5

[10] = tested on: Enterococcus faecium (9001); test: Antibiogram by diffusion technique (CA-SFM 2008); conditions: strain 9001
Source text: as §1, §2, §3, §4, §5

[11] = tested on: Gram-positive bacteria and Gram-negative bacteria, resistant strains; test: Agar test, summary over the strains tested; conditions: also on resistant strains, low volume concentrations
Source text: For bacteria to have good accessibility (aqueous phase multiplication only) to essential oils, it is essential to find a method of aqueous phase solubilization. This step is neglected in much work that directly uses the lipid phase, which is inaccessible to bacteria (oil-soaked disc placed on agar). Moreover, for the topical use of oils, this solubilization phase is also essential, and with the goal of practical application, surfactants and solubilization adjuvants are also selected for their satisfactory cutaneous tolerance.
The final preparation includes: 1.0 ml of essential oil, 3.4 ml of Tween 80 and 5.6 ml of 10% molar propylene glycol aqueous solution.
The day before the test, inoculate the strains in BH medium and on tilted MHA. Prepare test tubes containing 19 ml and 18 ml of MHA. Prepare test tubes containing 5 ml of 10% molar propylene glycol for the various dilutions.
On the day of the test, solubilize the trans-cinnamaldehyde as follows: • 1 ml of trans-cinnamaldehyde • 3.4 ml of Tween 80 • 5.6 ml of 10% molar propylene glycol.
When the trans-cinnamaldehyde is solubilized, prepare successive 1/2 dilutions in 10% molar propylene glycol.
Add 1 ml of suitable dilutions in the test tubes containing 19 ml of medium, homogenize well and pour into Petri dishes. […]

[12] = tested on: Enterobacter aerogenes (9004); test: Antibiogram by diffusion technique (CA-SFM 2008); conditions: strain 9004
Source text: as §1, §2, §3, §4, §5

E. coli strain 9003 = test: Antibiogram by diffusion technique (CA-SFM 2008)
Source text: as §1, §2, §3, §4, §5

Molecule	Category (Cat.) (E. coli ATCC 25922)	Diameter (D) (E. coli ATCC 25922)	Category (Enterococcus strain 8152)	Diameter (Enterococcus strain 8152)	Category (Enterococcus strain 8153)	Diameter (Enterococcus strain 8153)	Cat. (E. coli strain 8155)	D (E. coli strain 8155)	Cat. (E. coli strain 8157)	D (E. coli strain 8157)	Cat. [1]	D [1]	Cat. [2]	D [2]	Cat. [3]	D [3]	Cat. [4]	D [4]	Cat. (E. coli strain 8154)	D (E. coli strain 8154)	other results
C[C@H]1COc2c(N3CCN(C)CC3)c(F)cc3c(=O)c(C(=O)O)cn1c23 [Levofloxacin]	S	31	S	29	S	26	S	31	R	11	R	10	R	0	S	23	S	26	S	36	Cat. [5]: R; D [5]: 0; Cat. [6]: R; D [6]: 10; Cat. (E. coli strain 8156): S; D (E. coli strain 8156): 31; Cat. [7]: R; D [7]: 0; Category [8]: S; Category [9]: R; Category [10]: R
O=C/C=C/c1ccccc1 [trans-cinnamaldehyde]																					Spectrum of antibacterial activity [11]: antibacterial activity on both Gram-positive bacteria and Gram-negative bacteria
Gentamicin	S	25	R	15	R	14	S	21	S	25	S	28	R	16	S	27	S	21	S	21	Cat. [5]: S; D [5]: 27; Cat. [6]: S; D [6]: 26; Cat. (E. coli strain 8156): S; D (E. coli strain 8156): 25; Cat. [7]: R; D [7]: 0; Category [12]: S; Category (E. coli strain 9003): S; Category [8]: S; Category [9]: R; Category [10]: S
